Measured values: patent publication US20140030808A1, “Method for Cellular RNA Expression” (BIONTECH AG, priority 2010, published 2014)

Legend:
Type in all cases: cell-based
[1] = tested on: Primary human foreskin fibroblasts (BJ, CCD1079Sk); experiment: GFP expression by flow cytometry (MFI) in fibroblasts electroporated with IVT RNA
Description: (AB) Primary human foreskin fibroblasts from different donors and suppliers (panel A: BJ fibroblasts; panel B CCD1079Sk) and (C) MEFs were electroporated with 0.5 μg IVT RNA encoding for firefly luciferase and 1.25 μg IVT RNA encoding for enhanced GFP (eGFP). The cells were plated into […] at a density of 250000 cells/well. The cells were either left untreated or incubated with increasing amounts of C13H8N4OS (PKR-inhibitor) ranging from 0.5 μM to 2 μM as indicated in the panel legends. GFP expression was measured by flow cytometry at the indicated time points. The mean fluorescence intensity (MFI) of the transfected GFP-positive cell fractions is shown.
Transfer of IVT-RNA into cells was performed by electroporation (EP). […]
For quantification of d2eGFP and eGFP protein, cells were washed in PBS, fixed using PBS supplemented with 2% formaldehyde and analyzed by flow cytometry on a FACS Canto II flow cytometer (BD Biosciences, Heidelberg, Germany). Gating was performed on living cells and mean fluorescence intensity (MFI) of GFP expressing cell populations was quantified using FlowJo software (Tree Star, Ashland, Oreg., USA). […] Gating was performed on living CD4+ and CD8+ T-cells and GFP expression and MFI of both T-cell subpopulations was determined by flow cytometry. […]

[2] = tested on: Primary human umbilical vein endothelial cells (HUVECs)
[3] = tested on: Primary human foreskin fibroblasts (BJ, CCD1079Sk); experiment: Intracellular FACS staining of reprogramming transcription factors after IVT RNA transfer
Description: (AB) Primary human foreskin fibroblasts from different donors and suppliers (panel A: BJ fibroblasts; panel B: CCD1079Sk) and (C) MEFs were electroporated with 0.5 μg IVT RNA encoding for firefly luciferase and 1.25 μg IVT RNA encoding for eGFP and 2.5 μg of IVT RNA encoding for each of the individual reprogramming factors OCT4, SOX2, KLF4 and c-MYC. Electroporations were performed in 2 mm gap cuvettes using optimized parameters for each cell type. The cells were plated into 6-well-plates at a density of 250000 cells/well. The cells were either left untreated or incubated with increasing amounts of C13H8N4OS (PKR-inhibitor) ranging from 0.5 μM to 2 μM as indicated in the panel legend. The OCT4 expression was detected by intracellular staining with a fluorescently labeled antibody and measured by flow cytometry at the indicated time points. The mean fluorescence intensity (MFI) of the transfected OCT4-positive cell fractions is shown. (D) CCD1079Sk fibroblasts were electroporated with IVT RNA as in B and treated for 24 h or 48 h with 2 μM C13H8N4OS. 72 h post electroporation the cells were harvested and intracellular staining with fluorescent labeled antibodies reactive against the indicated transcription factors were performed. The MFI of the transcription factor-positive cell fractions are shown.
Intracellular FACS staining of OCT4, SOX2 and NANOG was done using the human pluripotent stem cell transcription factor analysis kit following the manufacturer's instructions (BD Bioscience). Briefly, 3-5×10^5 cells were harvested, washed twice with PBS and fixed for 20 min in 250 μl BD Cytofix Buffer (BD Biosciences) at room temperature. After the incubation cells were washed twice with PBS and permeabilized by washing twice with 1× Perm/Wash Buffer (BD Bioscience) followed by 10 minutes incubation in 50 μl 1× Perm/Wash at room temperature. […] Cells were resuspended in PBS supplemented with 2% formaldehyde and analyzed by flow cytometry as described above. […]

[4] = 2 μM for 24 h or 48 h, 72 h post electroporation

## O=C1Nc2ccc3ncsc3c2/C1=C/c1c[nH]cn1 [C13H8N4OS, 6,8-dihydro-8-(1H-imidazol-5-ylmethylene)-7H-pyrrolo[2,3-g]benzothiazol-7-one]
[1]; 0.5 μM to 2 μM, human fibroblasts
  GFP expression (MFI): dose dependent increase
[1]; highest concentration used (2 μM)
  stabilization of GFP expression: high level of stabilization
[2]; 0.5 μM to 2 μM, HUVECs
  luciferase expression: enhanced in HUVECs in a dose dependent manner
[2]; HUVECs cotransfected with E3 and K3, increasing concentrations of C13H8N4OS
  luciferase expression on additional application of inhibitor: additively enhanced
[2]; HUVECs, PKR inhibition
  duration of luciferase expression compared with fibroblasts: not as long lasting as observed in fibroblasts
[3]; 0.5 μM to 2 μM permanently or 2 μM for 24 h or 48 h
  OCT4 expression (MFI): strongly increased and stabilized
[3]; [4]
  Nanog expression (MFI): strongly increased and stabilized
  SOX2 expression (MFI): strongly increased and stabilized
